How the values were obtained:
[1] = type: physicochemical; conditions: urea + 10.5% ES + 500 ppm nBTPT as Amiplus liquid (Exp. H-M); open pots in nissenhut; measured after 28 days (ranking given as after 14 days)
Protocol: (§1) 1.2 kg of solid fertilizer material was added to a lab scale drum. In a next step, the nBTPT material was slowly added and subsequently followed, if applied, by an alkaline or alkaline-forming inorganic or organic compound. A residence time of 10 minutes was applied and the rotating speed of the drum was consequently the same in each experiment. In case a moisture-repellent coating was added, a nebulizer was used and, depending on the order of addition, the moisture-repellent coating was added before or after addition of the nBTPT material. Before use, the moisture-repellent coating was preheated to 80° C.
Typically, a day/night cycle is generated in the nissenhut, with temperature fluctuations between 0 to 42° C. and fluctuations of relative humidity between 20 and 90%, which can be compared with real life storage in silos.
The samples were stored 28 days in open pots in nissenhut.
The samples were stored for 28 days in open pots in nissenhut.

[2] = Accelerated storage stability of nBTPT on fertilizer granules (HPLC analysis of nBTPT content); type: physicochemical; conditions: nBTPT formulations (500 ppm powder or Agrotain Ultra) applied onto urea comprising 9% elemental sulphur (samples B, C); 12 days at 70° C. in closed plastic container
Protocol: as §1
For some samples, an accelerated stability test was done after storing these samples at elevated temperatures: • Oven of 30° C., open to air • 70° C. in a closed plastic container
HPLC analysis of nBTPT is done as described in the procedure CEN 15688-2007.
This set of samples was stored at room temperature (20-25° C.) in bags and at elevated temperature (30° C. and 70° C., accelerated stability test).

SMILES: [O]=[Mg] [MgO, magnesium oxide]
- effectivity of the stabilizers (ranking) on stability of nBTPT [1]: CaCO3═MgO>CaO>ZnO>Et3N>no stabilizer

SMILES: [O]=[Ca] [CaO, calcium oxide]
- effectivity of the stabilizers (ranking) on stability of nBTPT [1]: CaCO3═MgO>CaO>ZnO>Et3N>no stabilizer

SMILES: [O]=[Zn] [ZnO, zinc oxide]
- effectivity of the stabilizers (ranking) on stability of nBTPT [1]: CaCO3═MgO>CaO>ZnO>Et3N>no stabilizer

SMILES: CCCCNP(N)(N)=S [nBTPT, N-(n-butyl) thiophosphoric triamide]
- nBTPT level after storage [2]: 0 weight %

SMILES: O=C([O-])[O-].[Ca+2] [CaCO3, calcium carbonate]
- effectivity of the stabilizers (ranking) on stability of nBTPT [1]: CaCO3═MgO>CaO>ZnO>Et3N>no stabilizer

— patent US20190225557A1, “IMPROVED UREA-BASED C[…] SULPHUR AND METHOD FOR THE MANUFACTURE THEREOF” (YARA INT[…], priority 2016, published 2019)
